Source: patent US11028095B2, “Spiro-lactam and bis-spiro-lactam NMDA receptor modulators and uses thereof” (Aptinyx Inc., priority 2016, dated 2021)
Where two headings read alike, the source gives them in different places.

What was measured:
[1] = Microsomal stability (Rat); type: in vitro ADME; conditions: rat microsomes
Protocol: (§1) Microsomal stability of disclosed compounds was investigated. The following table indicates the percent of compound remaining after 60 minutes.

[2] = target: T1, NMDAR2B expressing HEK cell membranes (Homo sapiens, UniProt Q05586+Q13224); test: NMDAR agonist assay, [3H]MK-801 binding, NMDAR2B; type: biochemical; conditions: for EC50: [3H]MK-801 binding; for Emax: relative to 1 mM glycine
T1 construct: expressed in transfected cells; host or cells: HEK cells (membrane extract)
Protocol: (§2) (nonequilibrium conditions).
(§3) The baseline value was determined from the best fit curve of the DPM values modeled using the GraphPad program and the log(agonist) vs. response(three parameters) algorithm was then subtracted from all points in the dataset.

[3] = target: T2, NMDAR2B expressing HEK cell membranes (Homo sapiens, UniProt Q13224); test: NMDAR agonist assay, [3H]MK-801 binding, NMDAR2B; type: biochemical; conditions: 50 μM glutamate; relative to 1 mM glycine
T2 construct: expressed in transfected cells; host or cells: HEK cells (membrane extract)
Protocol: as §2, §3

Plasma stability (Human) = type: in vitro ADME
Protocol: (§4) Plasma stability of disclosed compounds was investigated. The following table indicates the percent of compound remaining after 60 minutes.

[4] = target: T3, NMDAR2C expressing HEK cell membranes (Homo sapiens, UniProt Q05586+Q14957); test: NMDAR agonist assay, [3H]MK-801 binding, NMDAR2C; type: biochemical; conditions: for EC50: [3H]MK-801 binding
T3 construct: expressed in transfected cells; host or cells: HEK cells (membrane extract)
Protocol: as §2, §3

[5] = system: positive (hedonic) 50-kHz ultrasonic vocalizations (USVs); test: Positive Emotional Learning (PEL) test; type: in vivo; conditions: rat, PO, one hour after administration
Protocol: Experiments were conducted as described in Burgdorf et al., “The effect of selective breeding for differential rates of 50-kHz ultrasonic vocalizations on emotional behavior in rats,” Devel. […] Rat 50-kHz ultrasonic vocalization (hedonic USVs) is a validated model for the study of positive affective state and is best elicited by rough-and-tumble play.
The PEL assay measures the acquisition of positive (hedonic) 50-kHz ultrasonic vocalizations (USVs) to a social stimulus, heterospecific rough and tumble play stimulation. Heterospecific rough-and-tumble play stimulation was administered by the experimenter's right hand. One hour after administration of test compound or vehicle negative control (0.5% sodium carboxymethyl cellulose in 0.9% sterile saline vehicle), animals received 3 min of heterospecific rough-and-tumble play that consisted of alternating 15 sec blocks of heterospecific play and 15 sec of no-stimulation. […] Frequency modulated 50-kHz USVs that occurred during each of the no-stimulation periods were quantified to measure PEL. Animals were not habituated to play stimulation before testing. Positive emotional learning was measured during the conditioned stimulus (CS) trials preceding the tickle unconditioned stimulus (UCS) trials. Animals received 15 second trials consisting of 6 CS and 6 UCS trials each (3 min total).

Plasma stability (Rat) = type: in vitro ADME
Protocol: as §4

IV pharmacokinetics = type: in vivo; conditions: rat, in vivo, 2 mg/kg, Sprague Dawley rats, normal saline; for C0: read-out: C0; for Vd: read-out: Vss
Protocol: Sprague Dawley rats were dosed intravenously using a normal saline formulation containing 2 mg/kg of the compounds identified in the below table. The table below summarizes the results of the IV pharmacokinetics.

[6] = Microsomal stability (Human); type: in vitro ADME; conditions: human microsomes
Protocol: as §1

[7] = target: T4, NMDAR2D expressing HEK cell membranes (Homo sapiens, UniProt O15399+Q05586); test: NMDAR agonist assay, [3H]MK-801 binding, NMDAR2D; type: biochemical; conditions: for EC50: [3H]MK-801 binding; for Emax: read-out: NMDAR2D: % maximal [3H]MK-801 binding relative to 1 mM glycine
T4 construct: expressed in transfected cells; host or cells: HEK cells (membrane extract)
Protocol: as §2, §3

[8] = target: T5, NMDAR2A expressing HEK cell membranes (Homo sapiens, UniProt Q12879); test: NMDAR agonist assay, [3H]MK-801 binding, NMDAR2A; type: biochemical; conditions: 50 μM glutamate
T5 construct: expressed in transfected cells; host or cells: HEK cells (membrane extract)
Protocol: as §2, §3

[9] = Oral pharmacokinetics (plasma, brain, CSF); type: in vivo; conditions: Sprague Dawley rats, per os, 10 mg/kg; for AUC(0-t) / bioavailability / Tmax / Cmax: rat, plasma, po; for Tmax: normal saline, read-out: Tmax; for Cmax: read-out: Cmax
Protocol: In another experiment, Sprague Dawley rats were dosed per os using a normal saline formulation containing 10 mg/kg of the compounds identified in the table below. Plasma, brain, and CSF samples were analyzed at various time points over a 24 hour period. The table below summarizes the results of the oral pharmacokinetics.

[10] = target: T6, NMDAR2A expressing HEK cell membranes (Homo sapiens, UniProt Q05586+Q12879); test: NMDAR agonist assay, [3H]MK-801 binding, NMDAR2A; type: biochemical; conditions: for EC50: [3H]MK-801 binding
T6 construct: expressed in transfected cells; host or cells: HEK cells (membrane extract)
Protocol: as §2, §3

[11] = 50 μM glutamate, read-out: NMDAR2B log EC50 (converted)
[12] = 50 μM glutamate, read-out: NMDAR2C: log EC50 (converted)
[13] = 50 μM glutamate, relative to 1 mM glycine, read-out: NMDAR2C A: % maximal [3H]MK-801 binding relative to 1 mM glycine
[14] = 50 μM glutamate, read-out: NMDAR2D: log EC50 (converted)
[15] = 50 μM glutamate, relative to 1 mM glycine
[16] = NMDAR2B: log EC50, 50 μM glutamate
[17] = read-out: NMDAR2C: % maximal [3H]MK-801 binding relative to 1 mM glycine
[18] = NMDAR2A: log EC50, 50 μM glutamate

T3 sequence (Q14957 20-1233, other chains not shown): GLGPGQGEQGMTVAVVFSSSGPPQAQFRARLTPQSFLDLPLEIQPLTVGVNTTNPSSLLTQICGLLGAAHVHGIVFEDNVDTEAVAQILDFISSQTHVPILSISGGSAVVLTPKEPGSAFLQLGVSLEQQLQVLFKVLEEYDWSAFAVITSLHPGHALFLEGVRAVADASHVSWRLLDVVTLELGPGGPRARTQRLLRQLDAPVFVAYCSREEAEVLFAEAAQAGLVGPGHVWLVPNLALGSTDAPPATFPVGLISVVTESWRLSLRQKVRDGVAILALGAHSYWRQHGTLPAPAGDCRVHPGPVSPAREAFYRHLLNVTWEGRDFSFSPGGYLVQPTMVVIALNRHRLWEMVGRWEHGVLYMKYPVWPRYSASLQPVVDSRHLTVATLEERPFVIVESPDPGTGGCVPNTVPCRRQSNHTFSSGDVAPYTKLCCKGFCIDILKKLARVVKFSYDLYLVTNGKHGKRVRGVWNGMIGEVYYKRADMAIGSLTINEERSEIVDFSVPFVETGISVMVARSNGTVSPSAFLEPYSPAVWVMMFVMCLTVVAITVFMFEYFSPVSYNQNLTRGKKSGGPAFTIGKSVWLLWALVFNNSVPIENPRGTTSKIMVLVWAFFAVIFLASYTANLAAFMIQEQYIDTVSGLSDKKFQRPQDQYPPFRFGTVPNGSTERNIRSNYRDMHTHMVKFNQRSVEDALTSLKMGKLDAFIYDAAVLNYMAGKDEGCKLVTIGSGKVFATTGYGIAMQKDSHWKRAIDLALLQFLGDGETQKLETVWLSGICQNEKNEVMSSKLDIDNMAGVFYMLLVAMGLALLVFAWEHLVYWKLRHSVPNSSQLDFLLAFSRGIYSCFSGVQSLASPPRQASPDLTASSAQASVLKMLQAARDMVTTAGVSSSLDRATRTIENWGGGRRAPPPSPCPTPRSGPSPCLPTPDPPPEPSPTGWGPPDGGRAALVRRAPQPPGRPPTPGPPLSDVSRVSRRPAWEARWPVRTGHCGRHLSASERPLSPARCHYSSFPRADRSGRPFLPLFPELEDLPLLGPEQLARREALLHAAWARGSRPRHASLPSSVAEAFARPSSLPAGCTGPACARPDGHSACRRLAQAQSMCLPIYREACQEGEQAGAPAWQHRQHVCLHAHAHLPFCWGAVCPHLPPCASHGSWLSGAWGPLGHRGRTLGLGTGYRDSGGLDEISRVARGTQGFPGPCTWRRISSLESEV
T4 sequence (O15399 28-1336, other chains not shown): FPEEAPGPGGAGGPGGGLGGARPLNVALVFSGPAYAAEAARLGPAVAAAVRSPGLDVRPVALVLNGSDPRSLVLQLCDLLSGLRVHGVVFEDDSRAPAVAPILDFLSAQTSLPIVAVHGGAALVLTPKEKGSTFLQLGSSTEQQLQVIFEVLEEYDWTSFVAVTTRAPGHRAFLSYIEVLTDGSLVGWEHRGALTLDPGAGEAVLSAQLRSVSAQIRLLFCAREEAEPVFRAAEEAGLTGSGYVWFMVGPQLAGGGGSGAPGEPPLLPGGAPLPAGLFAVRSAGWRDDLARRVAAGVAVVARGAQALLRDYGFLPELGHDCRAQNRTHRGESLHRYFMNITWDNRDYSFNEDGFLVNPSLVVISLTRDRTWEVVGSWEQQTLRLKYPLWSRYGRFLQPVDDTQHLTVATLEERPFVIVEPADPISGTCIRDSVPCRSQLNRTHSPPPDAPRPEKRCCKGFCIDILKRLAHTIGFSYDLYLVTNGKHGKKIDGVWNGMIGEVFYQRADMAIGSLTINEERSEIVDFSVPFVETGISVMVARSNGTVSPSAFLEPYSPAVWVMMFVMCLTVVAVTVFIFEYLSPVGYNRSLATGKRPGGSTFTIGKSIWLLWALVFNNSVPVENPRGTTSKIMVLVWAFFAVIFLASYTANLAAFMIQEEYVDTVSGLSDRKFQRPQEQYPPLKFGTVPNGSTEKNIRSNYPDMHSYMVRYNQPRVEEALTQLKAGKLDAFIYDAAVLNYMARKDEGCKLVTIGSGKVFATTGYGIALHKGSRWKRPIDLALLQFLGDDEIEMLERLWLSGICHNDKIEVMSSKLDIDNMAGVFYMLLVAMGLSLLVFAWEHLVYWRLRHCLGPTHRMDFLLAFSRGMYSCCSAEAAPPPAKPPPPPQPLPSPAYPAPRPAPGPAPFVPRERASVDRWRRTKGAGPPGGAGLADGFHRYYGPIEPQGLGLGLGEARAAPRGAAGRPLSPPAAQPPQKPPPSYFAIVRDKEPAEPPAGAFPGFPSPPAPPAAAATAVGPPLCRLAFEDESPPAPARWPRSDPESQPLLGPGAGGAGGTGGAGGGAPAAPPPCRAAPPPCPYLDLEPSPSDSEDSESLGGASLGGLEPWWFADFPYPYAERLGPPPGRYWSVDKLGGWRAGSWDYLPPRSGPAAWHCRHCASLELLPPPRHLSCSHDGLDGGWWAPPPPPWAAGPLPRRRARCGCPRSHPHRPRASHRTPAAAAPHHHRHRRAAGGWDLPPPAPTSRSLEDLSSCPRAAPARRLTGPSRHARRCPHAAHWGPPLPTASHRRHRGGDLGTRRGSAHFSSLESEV
T5 sequence (Q12879 23-1464, other chains not shown): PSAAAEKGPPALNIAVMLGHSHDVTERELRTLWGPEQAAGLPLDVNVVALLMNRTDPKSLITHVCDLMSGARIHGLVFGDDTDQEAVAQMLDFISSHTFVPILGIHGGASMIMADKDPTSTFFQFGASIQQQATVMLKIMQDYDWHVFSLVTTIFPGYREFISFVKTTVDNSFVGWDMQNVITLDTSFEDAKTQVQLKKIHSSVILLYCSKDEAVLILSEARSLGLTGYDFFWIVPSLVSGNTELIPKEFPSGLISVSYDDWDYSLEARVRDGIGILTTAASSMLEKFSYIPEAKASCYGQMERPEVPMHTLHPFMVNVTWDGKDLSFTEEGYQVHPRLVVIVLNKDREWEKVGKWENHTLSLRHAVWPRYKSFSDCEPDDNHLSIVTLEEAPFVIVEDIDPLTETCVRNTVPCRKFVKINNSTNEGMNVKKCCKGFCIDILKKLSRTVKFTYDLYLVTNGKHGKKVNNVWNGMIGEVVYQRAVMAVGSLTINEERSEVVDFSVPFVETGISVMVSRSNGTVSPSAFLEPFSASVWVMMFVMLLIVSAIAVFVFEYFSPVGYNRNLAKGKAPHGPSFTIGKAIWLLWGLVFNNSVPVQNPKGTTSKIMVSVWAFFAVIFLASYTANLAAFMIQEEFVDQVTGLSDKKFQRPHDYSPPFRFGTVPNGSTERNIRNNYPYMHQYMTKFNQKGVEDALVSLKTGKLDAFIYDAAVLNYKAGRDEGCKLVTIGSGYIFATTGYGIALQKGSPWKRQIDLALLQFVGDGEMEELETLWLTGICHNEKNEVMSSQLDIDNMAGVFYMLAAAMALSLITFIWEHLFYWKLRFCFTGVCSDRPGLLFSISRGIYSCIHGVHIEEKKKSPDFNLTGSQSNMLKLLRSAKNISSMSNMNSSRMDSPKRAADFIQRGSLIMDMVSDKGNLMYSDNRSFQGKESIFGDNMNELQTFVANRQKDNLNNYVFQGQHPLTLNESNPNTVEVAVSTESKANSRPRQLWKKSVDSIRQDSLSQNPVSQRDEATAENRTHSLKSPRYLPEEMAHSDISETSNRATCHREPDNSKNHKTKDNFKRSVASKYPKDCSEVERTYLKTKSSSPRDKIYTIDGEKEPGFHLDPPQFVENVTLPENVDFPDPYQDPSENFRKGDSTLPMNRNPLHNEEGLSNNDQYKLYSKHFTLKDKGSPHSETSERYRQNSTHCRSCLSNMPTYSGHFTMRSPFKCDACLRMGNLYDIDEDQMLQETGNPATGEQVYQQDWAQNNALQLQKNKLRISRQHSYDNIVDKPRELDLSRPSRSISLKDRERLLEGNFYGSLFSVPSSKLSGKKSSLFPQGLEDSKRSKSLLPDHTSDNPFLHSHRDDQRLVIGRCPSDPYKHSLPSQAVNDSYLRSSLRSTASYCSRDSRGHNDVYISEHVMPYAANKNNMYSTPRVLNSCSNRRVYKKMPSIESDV

SMILES	Microsomal (Rat): percent of compound remaining after 60 minutes [1] [%]	EC50 [2, 11] [nM]	NMDAR2B: % maximal [3H]MK-801 binding relative to 1 mM glycine [3]	Plasma (Human): percent of compound remaining after 60 minutes (Plasma stability (Human)) [%]	EC50 [4, 12] [nM]	Emax [4, 13] [%]	Max Effect (mean number of 50 kHz USVs per 15 seconds) ([5]; dose 0.1 mg/kg)	Plasma (Rat): percent of compound remaining after 60 minutes (Plasma stability (Rat)) [%]	AUC(0-t) (IV pharmacokinetics; Sprague Dawley, iv) [ng·h/mL]	clearance (IV pharmacokinetics; Sprague Dawley, iv) [mL/min/kg]	half-life (IV pharmacokinetics; Sprague Dawley, iv) [min]	C0 (IV pharmacokinetics; Sprague Dawley, iv) [ng/mL]	Vd (IV pharmacokinetics; Sprague Dawley, iv) [L/kg]	Microsomal (Human): percent of compound remaining after 60 minutes [6] [%]	EC50 [7, 14] [nM]	Emax [7, 15] [%]	NMDAR2A: % maximal [3H]MK-801 binding relative to 1 mM glycine [8]	CSF Cmax [9] [ng/mL]	Brain Cmax [9] [ng/mL]	AUC(0-t) ([9]; Sprague Dawley) [ng·h/mL]	further results
CC(C)C(=O)N1C2(CCC13CNC3=O)CNC2=O (single isomer, unassigned) [AH, 5-isobutyryl-2,5,8-triazadispiro[3.1.36.24]undecane-1,7-dione]	100	< 1	+ (<100%=+)	95	< 1	< 100	** (**: 11-16.9)	100	3020	10.9	221	3870	1.1	100	< 1	< 100	+ (<100%=+)	123	45.8	2570	EC50 ([8]; [3H]MK-801 binding, read-out: NMDAR2A: log EC50 (converted)): < 1 nM; bioavailability ([9]; Sprague Dawley): 17%; Tmax ([9]; Sprague Dawley): 100 min; Cmax ([9]; Sprague Dawley): 655 ng/mL
O=C1NCC12CCC1(CNC1=O)N2 (single isomer, unassigned) [AJ, 2,5,8-triazadispiro[3.1.36.24]undecane-1,7-dione]	100	–	+ (<100%=+)	90	–	–	** (**: 11-16.9)	68	–	–	–	–	–	100	–	–	+ (<100%=+)	71.9	0	–	EC50 [2, 16]: < 1 nM; EC50 ([4]; NMDAR2C: log EC50, 50 μM glutamate): < 1 nM; Emax [4, 17]: < 100%; AUC(0-t) (IV pharmacokinetics): 2090 ng·h/mL; clearance (IV pharmacokinetics): 15.4 mL/min/kg; half-life (IV pharmacokinetics): 26.4 min; C0 (IV pharmacokinetics): 4860 ng/mL; Vd (IV pharmacokinetics): 0.47 L/kg; EC50 ([7]; NMDAR2D: log EC50, 50 μM glutamate): < 1 nM; Emax [7]: < 100%; EC50 [10, 18]: < 1 nM; AUC(0-t) [9]: 2060 ng·h/mL; bioavailability [9]: 20%; Tmax [9]: 30 min; Cmax [9]: 1160 ng/mL
C[C@@H](O)[C@@H](C(N)=O)N1CC2(CCC3(CN([C@H](C(N)=O)[C@@H](C)O)C3=O)N2C(=O)OC(C)(C)C)C1=O (stereo partly drawn) [BY, tert-butyl 2,8-bis((2S,3R)-1-amino-3-hydroxy-1-oxobutan-2-yl)-1,7-dioxo-2,5,8-triazadispiro[3.1.36.24]undecane-5-carboxylate]	81	< 1	–	81	< 1	< 100	** (**: 11-16.9)	82	5960	5.6	38.4	10200	0.15	100	> 100	0	–	0	0	486	Emax ([2]; 50 μM glutamate, read-out: NMDAR2B: % maximal [3H]MK-801 binding relative to 1 mM glycine): > 100%; EC50 ([10]; 50 μM glutamate, read-out: NMDAR2A: log EC50 (converted)): > 100 nM; bioavailability ([9]; Sprague Dawley): 2%; Tmax ([9]; Sprague Dawley): 49.8 min; Cmax ([9]; Sprague Dawley): 156 ng/mL
CC(C)CN1[C@]2(CC[C@]13CNC3=O)CNC2=O [Compound AF, 5-isobutyl-2,5,8-triazadispiro[3.1.36.24]undecane-1,7-dione]	87	–	–	99	–	–	–	90	–	–	–	–	–	92	–	–	–	2781	1313.8	–	EC50 [2, 16]: < 1 nM; Emax ([2]; read-out: NMDAR2B: % maximal [3H]MK-801 binding relative to 1 mM glycine, 50 μM glutamate): < 100%; Emax [4, 17]: > 100%; Max Effect (mean number of 50 kHz USVs per 15 seconds) ([5]; dose 0.001-1 mg/kg): ** (**: 11-16.9); AUC(0-t) (IV pharmacokinetics): 6450 ng·h/mL; clearance (IV pharmacokinetics): 5.2 mL/min/kg; half-life (IV pharmacokinetics): 299 min; C0 (IV pharmacokinetics): 3900 ng/mL; Vd (IV pharmacokinetics): 0.59 L/kg; Emax [7]: < 100%; EC50 [10, 18]: < 1 nM; Emax ([10]; read-out: NMDAR2A: % maximal [3H]MK-801 binding relative to 1 mM glycine, 50 μM glutamate, relative to 1 mM glycine): < 100%; AUC(0-t) [9]: 16100 ng·h/mL; bioavailability [9]: 82%; Tmax [9]: 25.2 min; Cmax [9]: 7250 ng/mL
